Columns and labels:
[1] = tested on: MMP1 expression by activated primary synovial fibroblasts; test: 'MMP assay': MMP1 expression by complex trigger activated synovial fibroblasts (MMP1 ELISA); type: cell-based; details: Homo sapiens, Fibroblast; Table 3; RASFs, complex trigger, 48 hrs, MMP1 ELISA
[2] = tested on: TNFα release by human PBMCs; test: Cytokine release by LPS stimulated human PBMCs (TNFα ELISA); type: cell-based; details: PBMC, 24 h, Table 5, LPS 1 μg/mL
[3] = biological target: T1, MAPKAPK5 (Homo sapiens, UniProt Q8IW41); test: MAPKAP-K5 assay (FlashPlate kinase assay)
T1 sequence (Q8IW41 1-471 isoform Q8IW41-2): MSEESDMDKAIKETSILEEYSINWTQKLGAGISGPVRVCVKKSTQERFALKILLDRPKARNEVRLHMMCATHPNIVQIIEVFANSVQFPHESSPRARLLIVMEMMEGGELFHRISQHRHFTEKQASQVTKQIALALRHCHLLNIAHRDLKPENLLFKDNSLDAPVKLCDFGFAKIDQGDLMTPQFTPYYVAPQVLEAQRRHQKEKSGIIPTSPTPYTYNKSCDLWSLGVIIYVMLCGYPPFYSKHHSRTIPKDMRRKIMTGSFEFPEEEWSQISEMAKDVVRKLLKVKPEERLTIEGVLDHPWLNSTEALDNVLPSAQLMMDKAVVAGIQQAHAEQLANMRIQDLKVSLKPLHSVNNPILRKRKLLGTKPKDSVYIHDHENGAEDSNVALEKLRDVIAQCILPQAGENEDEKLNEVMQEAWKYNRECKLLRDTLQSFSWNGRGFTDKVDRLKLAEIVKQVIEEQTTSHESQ
Method: MAPKAP-K5 reactions are performed in FlashPlate format using 0.1 or 0.2 μCi 33P-ATP; 0.6 μM ATP; 1 mU MAPKAP-K5; 3 μM MAPKAP-K5 peptide substrate, incubated at room temperature for 30 minutes.
The MAPKAP-K5 kinase reaction is performed in a 384 well polypropylene plate (Matrix Technologies) and then transferred to a streptavidin-coated 384 well flashplate (Perkin-Elmer).
To wells containing 2 μL test compound or standard inhibitor, 13 μL Enzyme mix or diluent are added using a Hydra (Robbins Scientific).
Reactions are started by addition of 10 μL of [2,5×] substrate cocktail using a Multidrop (Thermo-Labsystems), to give final concentrations in the assay of:
Plates are incubated at room temperature for 30 minutes.
Reactions are terminated by the addition of 25 μL EDTA (50 mM) to each well using a Micro-fill (Biotek).
Reactions are transferred to a streptavidin-coated flashplate using a Zymark robotic system. Plates are incubated for 60 minutes at room temperature.
All wells are washed 3 times with 100 μl phosphate buffered saline using a Tecan plate washer.
Radioactivity is determined by scintillation counting of the flashplate (empty wells) on a Packard TopCount.
Enzyme Mix: • Enzyme • 50 mM Tris Hcl (pH 7.5) • 0.1 mM EGTA • 2 mM DTT • 1 mg/mL BSA
Reaction Buffer: • 50 mM Tris Hcl (pH 7.5) • 0.1 mM EGTA • 10 mM Magnesium acetate • 2 mM DTT

| Structure (SMILES) | IC50 [3] | EC50 [1] | EC50 [2] |
| --- | --- | --- | --- |
| c1nc2c(Nc3ccc(N4CCN(C5CC5)CC4)cc3)ncc(-c3cn[nH]c3)n2n1 [Compound 59, [4-(4-Cyclopropylpiperazin-1-yl)phenyl]-[5-(1H-pyrazol-4-yl)-[1,2,4]triazolo[1,5-a]pyrazin-8-yl]amine] | > 1000 nM | > 1000 nM | > 1000 nM |
| CN1CCN(c2ccc(Nc3ncc(-c4ccc(C(N)=O)c(F)c4)n4ncnc34)cc2)CC1 [Compound 7] | > 1000 nM | > 1000 nM | > 1000 nM |
| O=C1CCC(c2ccc(-c3cnc(Nc4ccc(N5CCOCC5)cc4)c4ncnn34)cc2)=NN1 [Compound 71] | > 1000 nM | > 1000 nM | > 1000 nM |
| O=C1NCc2cc(-c3cnc(Nc4ccc(N5CCOCC5)cc4F)c4ncnn34)ccc21 [Compound 75] | > 1000 nM | > 1000 nM | > 1000 nM |
| Clc1cc(Nc2ncc(-c3cn[nH]c3)n3ncnc23)ccc1N1CCOCC1 [Compound 18] | > 1000 nM | 501 to 1000 nM | > 1000 nM |
| NC(=O)c1cc(-c2cnc(Nc3ccc(N4CCOCC4)cc3)c3ncnn23)co1 [Compound 34, 4-(8-(4-Morpholinophenylamino)-[1,2,4]triazolo[1,5-a]pyrazin-5-yl)furan-2-carboxamide] | 101 to 500 nM | 1 to 100 nM | > 1000 nM |
| FC(F)(F)CN1CCN(c2ccc(Nc3ncc(-c4cn[nH]c4)n4ncnc34)cn2)CC1 [Compound 44, [5-(1H-Pyrazol-4-yl)-[1,2,4]triazolo[1,5-a]pyrazin-8-yl]-{6-[4-(2,2,2-trifluoroethyl)piperazin-1-yl]pyridin-3-yl}amine] | > 1000 nM | > 1000 nM | > 1000 nM |
| NC(=O)c1ccc(-c2cnc(Nc3ccc(N4CCOCC4)cc3)c3ncnn23)s1 [Compound 13] | > 1000 nM | 101 to 500 nM | > 1000 nM |
| NC(=O)c1c(F)cc(-c2cnc(Nc3ccc(N4CCOCC4)cc3)c3ncnn23)cc1F [Compound 14] | > 1000 nM | > 1000 nM | > 1000 nM |
| O=C1NCc2cc(-c3cnc(Nc4ccc(N5CCOCC5)cc4Cl)c4ncnn34)ccc21 [Compound 76] | > 1000 nM | 501 to 1000 nM | > 1000 nM |
| NC(=O)c1cc(-c2cnc(Nc3ccc(OCCN4CCOCC4)cc3)c3ncnn23)cs1 [Compound 21, 4-(8-(4-(2-Morpholinoethoxy)phenylamino)-[1,2,4]triazolo[1,5-a]pyrazin-5-yl)thiophene-2-carboxamide] | 101 to 500 nM | 101 to 500 nM | > 1000 nM |

Continued, in another order:

| IC50 [3] | Structure (SMILES) | EC50 [1] | EC50 [2] |
| --- | --- | --- | --- |
| > 1000 nM | Nc1ncc(-c2cnc(Nc3ccc(N4CCOCC4)cc3)c3ncnn23)cn1 [Compound 78] | > 1000 nM | 501 to 1000 nM |
| > 1000 nM | Nc1nc(-c2ccc(-c3cnc(Nc4ccc(N5CCOCC5)cc4)c4ncnn34)cc2)cs1 [Compound 85] | > 1000 nM | > 1000 nM |
| > 1000 nM | CNCc1cc(Nc2ncc(-c3cn[nH]c3)n3ncnc23)ccc1N1CCOCC1 [Compound 110] | > 1000 nM | > 1000 nM |
| 1 to 100 nM | CC(C)N1CCN(c2ccc(Nc3ncc(-c4ccc5c(c4)CNC5=O)n4ncnc34)cc2Cl)CC1 [Compound 180] | > 1000 nM | > 1000 nM |
| 501 to 1000 nM | NC(=O)CN1CCC(c2ccc(Nc3ncc(-c4cn[nH]c4)n4ncnc34)cc2)CC1 [Compound 169, 2-(4-{4-[5-(1H-Pyrazol-4-yl)-[1,2,4]triazolo[1,5-a]pyrazin-8-ylamino]phenyl}-piperidin-1-yl)acetamide] | > 1000 nM | > 1000 nM |
| 101 to 500 nM | O=C1NCc2cc(-c3cnc(Nc4cnc(N5CCOCC5)nc4)c4ncnn34)ccc21 [Compound 99] | > 1000 nM | 501 to 1000 nM |
| 501 to 1000 nM | CC(C)N1CCC(c2ccc(Nc3ncc(-c4cn[nH]c4)n4ncnc34)cc2)CC1 [Compound 84, [4-(1-Isopropylpiperidin-4-yl)phenyl]-[5-(1H-pyrazol-4-yl)-[1,2,4]triazolo[1,5-a]pyrazin-8-yl]amine] | > 1000 nM | > 1000 nM |
| 101 to 500 nM | O=C1NCc2cc(-c3cnc(NC4CCCCC4)c4ncnn34)ccc21 [Compound 115] | > 1000 nM | > 1000 nM |
